Broadly, the IC50 is the concentration that gives 50% inhibition. A higher IC50 goes with weaker potency in that assay.

One compound from patent US20260242365A1, “USES OF CERTAIN 1,4-OXAZEPANE-2-CARBOXAMIDES AS DPP1 INHIBITORS” (Insmed Incorporated, priority 2023, published 2026) can be followed below.

Each structure is given as a SMILES string.

This assay has as its target T1, mouse DPP1 (Mus musculus, UniProt P97821).
T1 construct: Test articles were applied to active mouse DPP1 enzyme; purchased R&D Systems
Put plainly: Mouse DPP1 Enzyme IC50 Assay. It is filed as biochemical. The conditions noted are these: active mouse DPP1 enzyme, H-Gly-Arg-AMC substrate. On the procedure: Test articles were applied to active mouse DPP1 enzyme (R&D Systems; Minneapolis, MN) in Assay Buffer (50 mM MES pH 5.5, 50 mM NaCl, 5 mM DTT) in a total reaction volume of 125 μL. 25 μL of compound in Assay Buffer plus 5% DMSO was first added to 50 μL of active mouse DPP1 enzyme at a concentration of […] and allowed to pre-incubate for 10 minutes at 37° C. after which 50 μL of 1000 μM H-Gly-Arg-AMC substrate (Bachem; St. Torrance, CA) was added, giving final substrate concentration of 400 μM and a final DMSO concentration of 1%. Substrate cleavage was measured for 90 minutes at 37° C., with fluorescence at Excitation/Emission 350/450 nm measured every 5 minutes. DPP1 concentration was interpolated based on its activity relative to a standard curve of recombinant active mouse DPP1 enzyme. IC50 values for each compound were calculated via the XLFit (IDBS Version 5.3.1.3) Add-On to Microsoft Excel using the four parameter fit equation y= (A+ ((B−A)/(1+ ((C/x)^D)))), which appears as equation number 205 (4 Parameter Logistic Model or Sigmoidal Dose-Response Model) in XLFit. Default constraints were used for each Parameter. IC50 was defined as the compound concentration at which 50% of enzyme activity was inhibited when compared to the no-compound control.

T1 sequence (P97821 25-134 limits assumed): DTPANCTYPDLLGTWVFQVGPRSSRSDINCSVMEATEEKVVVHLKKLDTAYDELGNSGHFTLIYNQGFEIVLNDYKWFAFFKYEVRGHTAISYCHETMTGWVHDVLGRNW
T1 sequence (P97821 231-393 limits assumed): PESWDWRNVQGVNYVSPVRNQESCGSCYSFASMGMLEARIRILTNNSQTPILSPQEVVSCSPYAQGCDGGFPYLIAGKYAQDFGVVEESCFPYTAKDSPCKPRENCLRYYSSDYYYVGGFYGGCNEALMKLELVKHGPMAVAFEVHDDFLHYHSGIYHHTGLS
T1 sequence (P97821 394-462 limits assumed): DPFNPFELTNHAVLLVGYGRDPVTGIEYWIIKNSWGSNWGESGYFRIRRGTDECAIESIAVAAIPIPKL

In the case of `Cn1c(=O)oc2ccc(-c3ccc(C[C@@H](C#N)NC(=O)[C@@H]4CNCCCO4)c(F)c3)cc21` [INSM-204], the IC50 was 5.6 ± 0.4 nM.
